From patent US6329400A, “Formamide compounds as therapeutic agents” (Glaxo Wellcome Inc., priority 1998, dated 2001)

Key:
TNFα converting enzyme = molecular target: T1, TNFα converting enzyme (Homo sapiens, UniProt P78536); test: TNFα Converting Enzyme Inhibition Protocol; type: biochemical; settings: cell-free, MonoMac 6 membrane preparation; IC50 equivalent to Ki at [S]<<Km
T1 construct: Membrane preparation from MonoMac 6 cells; endogenous in cells; host or cells: MonoMac 6 cells (membrane preparation, subfractionated extract)
Method: B. TNFα Converting Enzyme Inhibition Protocol
The reaction is quenched by addition of streptavidin SPA beads (Amersham RPNQ0006), with excess binding capacity relative to substrate, suspended in 250 mM EDTA, pH 8.0. Binding is complete within 15 minutes and plates are counted in a Wallac 1450 Microbeta liquid scintillation counter. Percent inhibition is calculated at each inhibitor concentration and the data were plotted using standard curve fitting programs. IC50 values were determined from these curves.

[1] = molecular target: T2, 19 kD truncated collagenase-1 (MMP-1) (Homo sapiens, UniProt P03956); test: Matrix Metalloprotease Inhibition Protocol, collagenase-1; type: biochemical; settings: fluorogenic substrate, pH 7.6; IC50 equivalent to Ki at [S]<<Km
T2 construct: 19 kD truncated collagenase-1 (MMP-1)
T2 sequence (P03956 101-269 limits assumed): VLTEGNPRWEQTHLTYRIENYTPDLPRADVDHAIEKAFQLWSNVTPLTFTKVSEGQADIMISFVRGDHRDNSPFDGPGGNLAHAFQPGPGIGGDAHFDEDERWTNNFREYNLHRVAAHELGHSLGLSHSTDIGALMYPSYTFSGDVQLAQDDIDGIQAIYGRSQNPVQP
Method: (§1) A. Matrix Metalloprotease Inhibition Protocol
(§2) Assays are conducted in a total volume of 0.180 mL assay buffer (200 mM NaCl, 50 mM Tris, 5 mM CaCl2, 10 μM ZnSO4, 0.005% Brij 35, pH 7.6) in each well of a black 96 well microtiter plate. 19 kD collagenase-1, 20 kD collagenase-3, stromelysin-1,and 50 kD gelatinase B concentrations are adjusted to 500 pM, 30 pM, 5 nM, and 100 pM, respectively. A dose response is generated using an eleven-point, 3-fold serial dilution with initial starting test compound concentrations of 100, 10, or 1 μM. Inhibitor and enzyme reactions are incubated for 30 minutes at ambient temperature and then initiated with 10 μM fluorogenic substrate (above). The product formation is measured at Excitation343 /Emission450 nm after 45-180 minutes using a Fluostar SLT fluorescence analyzer. Percent inhibition is calculated at each inhibitor concentration and the data were plotted using standard curve fitting programs. IC50 values were determined from these curves. Assays were run at low substrate concentration ([S]<<Km) such that the calculated IC50 values are equivalent to Ki within experimental error.

[2] = molecular target: 20 kD truncated collagenase-3 (MMP-13); test: Matrix Metalloprotease Inhibition Protocol, collagenase-3; type: biochemical; settings: fluorogenic substrate, pH 7.6; IC50 equivalent to Ki at [S]<<Km
Method: as §1
as §2, with “curves.” for “curves. Assays were run at low substrate concentration ([S]<<Km) such that the calculated IC50 values are equivalent to Ki within experimental error.”

[3] = molecular target: 50 kD truncated gelatinase B (MMP-9); test: Matrix Metalloprotease Inhibition Protocol, gelatinase B; type: biochemical; settings: fluorogenic substrate, pH 7.6; IC50 equivalent to Ki at [S]<<Km
Method: as §1
as §2, with “curves.” for “curves. Assays were run at low substrate concentration ([S]<<Km) such that the calculated IC50 values are equivalent to Ki within experimental error.”

stromelysin-1 (MMP-3) = stromelysin-1 (MMP-3) (Homo sapiens, UniProt P08254); test: Matrix Metalloprotease Inhibition Protocol, stromelysin-1; type: biochemical; settings: fluorogenic substrate, pH 7.6; IC50 equivalent to Ki at [S]<<Km
Method: as §1, §2

[4] = tested on: TNFα release from MonoMac 6 cells; test: Cell-Based TNFα Release Inhibition Protocol; settings: Homo sapiens, MONO-MAC-6; LPS/PMA-stimulated MonoMac 6 cells, 37° C., 2 hours
Method: C. Cell-Based TNFα Release Inhibition Protocol
This solution is then diluted 1:1000 (40 ng/mL and 120 ng/mL) for use later in the assay. Compounds (10 mM) are serially diluted 1:3 in DMSO. Compound dilutions (20 μL) are added to a sterile round bottom 96 well plate (20 μL:200 μL total volume=1:10 for final concentrations of 50 μM for test compounds). MonoMac 6 cell suspension (130 μL, 1.5×10^6 cells/mL) is then added to each well resulting in 2×10^5 cells/well. LPS/PMA (50 μL) solution is then added to each well to begin stimulation (final concentrations of 10 ng/mL and 30 ng/mL respectively). The plate is incubated at 37° C. for 2 hours then spun at 1,500 rpm for 3 minutes to pellet cells. The supernatant (120 μL/well) is removed to a new round bottom 96 well plate and diluted 1:10 in PBS. Then, 20 μL of the supernatant is transferred to a Cistron TNFα ELISA plate and processed according to the manufacturer's instructions to quantitate levels of TNFα. Percent inhibition of TNFα release is calculated at each inhibitor concentration and the data were plotted using standard curve fitting programs. IC50 values were determined from these curves.

serum TNFα = test: Murine LPS-Stimulated Serum TNF Inhibition Protocol; type: in vivo; settings: 40 mg/kg, 10 min prior to LPS, mice, 90 min after LPS
Method: Murine LPS--Stimulated Serum TNF Inhibition Protocol
The potency of compounds of the invention as inhibitors of serum TNFα elevation in mice treated with lipopolysaccharide (LPS) is determined as follows; a) for subcutaneous (s.c.) administration, test compound is dissolved in DMSO and added to a mixture of 0.9% sodium chloride solution and 30% Trappsol HPB-20 (Cyclodextrin Technology Development Inc., Gainesville, Fla. USA) for a final DMSO concentration of 1%. The dosing solution is sonicated briefly and 0.2 mL is injected subcutaneously 10 min prior to LPS injection, b) for per oral (p.o.) administration, test compounds are formulated in 0.2 mL of PBS and 0.1% Tween 80 and given orally via gavage 10 min prior to LPS administration.
C3/hen female mice are injected intraperitoneally with 200 μg/kg LPS (Escherichia coli, Serotype 0111:B4, Sigma Chemical Co, St. Louis, Mo.) in PBS and sacrificed 90 min later by CO2 asphyxiation. Blood is immediately taken from the caudal vena cava and plasma prepared and frozen at -80° C. Plasma concentrations of TNF are measured by ELISA (Genzyme Co., Cambridge Mass.).

Chain of stromelysin-1 (MMP-3) (P08254 100-477): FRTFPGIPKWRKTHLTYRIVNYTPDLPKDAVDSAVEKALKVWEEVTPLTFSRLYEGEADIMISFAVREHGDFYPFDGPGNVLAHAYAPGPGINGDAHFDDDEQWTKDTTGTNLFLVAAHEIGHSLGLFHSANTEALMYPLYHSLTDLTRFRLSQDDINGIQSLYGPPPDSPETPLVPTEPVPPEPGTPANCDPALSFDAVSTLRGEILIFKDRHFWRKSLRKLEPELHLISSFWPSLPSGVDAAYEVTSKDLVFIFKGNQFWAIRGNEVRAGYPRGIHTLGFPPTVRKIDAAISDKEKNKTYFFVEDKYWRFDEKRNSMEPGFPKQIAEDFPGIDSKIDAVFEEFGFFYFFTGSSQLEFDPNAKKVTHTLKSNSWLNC
T1 sequence (P78536 215-824): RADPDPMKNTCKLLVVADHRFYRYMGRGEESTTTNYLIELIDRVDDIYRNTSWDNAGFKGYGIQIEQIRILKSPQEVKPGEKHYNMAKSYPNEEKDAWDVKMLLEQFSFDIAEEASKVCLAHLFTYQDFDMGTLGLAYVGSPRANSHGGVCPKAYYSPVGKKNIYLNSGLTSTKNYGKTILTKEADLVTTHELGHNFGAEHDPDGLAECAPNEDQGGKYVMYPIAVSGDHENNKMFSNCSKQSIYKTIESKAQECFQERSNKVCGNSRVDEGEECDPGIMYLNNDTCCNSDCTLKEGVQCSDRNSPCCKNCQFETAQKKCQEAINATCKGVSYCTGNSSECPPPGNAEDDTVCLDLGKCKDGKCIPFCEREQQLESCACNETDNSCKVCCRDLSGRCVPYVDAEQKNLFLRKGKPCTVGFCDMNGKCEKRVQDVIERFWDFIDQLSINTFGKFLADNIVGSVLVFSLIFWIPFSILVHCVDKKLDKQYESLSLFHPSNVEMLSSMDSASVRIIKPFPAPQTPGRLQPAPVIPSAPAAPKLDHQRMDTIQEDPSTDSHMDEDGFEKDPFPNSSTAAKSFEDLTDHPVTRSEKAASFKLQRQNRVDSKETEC

Compound	Ki (TNFα converting enzyme)	Ki [1]	Ki [2]	Ki [3]	Ki (stromelysin-1 (MMP-3))	IC50 [4]	Percentage Inhibition of Serum TNFα (serum TNFα; s.c.)	Percentage Inhibition of Serum TNFα (serum TNFα; p.o.)
C[C@@H]([C@@H](CCCc1ccc(Cl)cc1)C(=O)N[C@H](C(=O)Nc1cccnc1)C(C)(C)C)N(O)C=O [Example 195, (2R,3S)-3-(Formyl-hydroxyamino)-2-(3-(4-chlorophenyl)-1-propyl)butanoic Acid [(1S)-2,2-Dimethyl-1-(pyridine-3-ylcarbamoyl)-1-propyl]amide]	> 1000 nM	< 100 nM	< 100 nM	< 100 nM	< 100 nM			
CCC[C@@H]([C@H](COCc1ccccc1)C(=O)N[C@@H](CCCCNC(=O)OCc1ccccc1)C(=O)Nc1nccs1)N(O)C=O [Example 6, (2R,3S)-3-(Formyl-hydroxyamino)-2-(benzyloxymethyl)hexanoic Acid [(1S)-5-Benzyloxycarbonylamino-1-(1,3-thiazol-2-ylcarbamoyl)-1-pentyl]amide]	< 100 nM	> 1000 nM	100 to 500 nM	> 1000 nM	100 to 500 nM	> 1000 nM		
CCC[C@@H]([C@@H](CC(C)Cc1ccccc1)C(=O)N[C@H](C(=O)Nc1nccs1)C(C)(C)SCCNC(=O)OCc1ccccc1)N(O)C=O (stereo partly drawn) [Example 7, (2R,3S)-3-(Formyl-hydroxyamino)-2-(3-phenyl-2-methyl-1-propyl)hexanoic Acid [(1R)-2-Methyl-2-(2-benzyloxycarbonylamino-1-ethylsulfanyl)-1-(1,3-thiazol-2-ylcarbamoyl)-1-propyl]-amide]	100 to 500 nM	> 1000 nM	500 to 1000 nM	> 1000 nM	> 1000 nM	> 1000 nM		
CCC[C@@H]([C@@H](CC(C)Cc1ccccc1)C(=O)N[C@@H](CCCCNC(=O)OCc1ccccc1)C(=O)Nc1nccs1)N(O)C=O (stereo partly drawn) [Example 9, (2R,3S)-3-(Formyl-hydroxyamino)-2-(3-phenyl-2-methyl-1-propyl)hexanoic Acid [(1S)-5-Benzyloxycarbonylamino-1-(1,3-thiazol-2-ylcarbamoyl)-1-pentyl]amide]		> 1000 nM	500 to 1000 nM	> 1000 nM	> 1000 nM	100 to 500 nM		
CCC[C@@H]([C@@H](Cc1ccc(C)s1)C(=O)N[C@H](C(=O)Nc1nccs1)[C@@H](C)OCc1ccccn1)N(O)C=O [Example 146, (2R,3S)-3-(Formyl-hydroxyamino)-2-(5-methyl-2-thiophenemethyl)hexanoic Acid [(1S,2R)-2-(2-Pyridylmethoxy)-1-(1,3-thiazol-2-ylcarbamoyl)-1-propyl]amide]							++ (50%-75%)	
CCC[C@@H]([C@@H](CCCc1ccccc1)C(=O)N[C@@H](CCCCNC(=O)OCc1ccccc1)C(=O)Nc1nncs1)N(O)C=O [Example 3, (2R,3S)-3-(Formyl-hydroxyamino)-2-(3-phenyl-1-propyl)hexanoic Acid [(1S)-5-Benzyloxycarbonylamino-1-(1,3,4-thiadiazol-2-yl-carbamoyl)-1-pentyl]amide]	< 100 nM	> 1000 nM			< 100 nM	100 to 500 nM		
CCC[C@@H]([C@@H](CC(C)Cc1ccccc1)C(=O)N[C@H](C(=O)Nc1nccs1)C(C)(C)C)N(O)C=O (stereo partly drawn) [Example 8, (2R,3S)-3-(Formyl-hydroxyamino)-2-(3-phenyl-2-methyl-1-propyl)hexanoic Acid [(1S)-2,2-Dimethyl-1-(1,3-thiazol-2-ylcarbamoyl)-propyl]amide]	< 100 nM	> 1000 nM	100 to 500 nM	> 1000 nM	> 1000 nM	> 1000 nM		
CCC[C@@H]([C@@H](CCCc1ccoc1)C(=O)N[C@@H](CCCCNC(=O)OCc1ccccc1)C(=O)Nc1nccs1)N(O)C=O [Example 4, (2R,3S)-3-(Formyl-hydroxyamino)-2-(3-(3-furyl)-1-propyl)hexanoic Acid [(1S)-5-Benzyloxycarbonylamino-1-(1,3-thiazol-2-ylcarbamoyl)-1-pentyl]amide]	< 100 nM	> 1000 nM	< 100 nM	100 to 500 nM	< 100 nM	< 100 nM		
CCC[C@@H]([C@@H](CCCc1ccoc1)C(=O)N[C@H](C(=O)Nc1nccs1)C(C)(C)C)N(O)C=O [Example 5, (2R,3S)-3-(Formyl-hydroxyamino)-2-(3-(3-furyl)-1-propyl)hexanoic Acid [(1S)-2,2-Dimethyl-1-(1,3-thiazol-2-ylcarbamoyl)-1-propyl]amide]		500 to 1000 nM	< 100 nM	< 100 nM	< 100 nM	100 to 500 nM		
C[C@@H]([C@@H](CCCc1ccccc1)C(=O)N[C@H](C(=O)Nc1cccnc1)C(C)(C)C)N(O)C=O [Example 1, (2R,3S)-3-(Formyl-hydroxyamino)-2-(3-phenyl-1-propyl)butanoic Acid [(1S)-2,2-Dimethyl-1-(pyridine-3-ylcarbamoyl)-1-propyl]amide]	500 to 1000 nM	< 100 nM	< 100 nM	< 100 nM	< 100 nM			
CC(C)(C)[C@H](NC(=O)[C@H](CCCc1ccccc1)[C@H](CCC(F)(F)F)N(O)C=O)C(=O)Nc1nccs1 [Example 183, (2R,3S)-3-(Formyl-hydroxyamino)-2-(3-phenyl-1-propyl)-6,6,6-trifluorohexanoic Acid [(1S)-2,2-Dimethyl-1-(1,3-thiazol-2-ylcarbamoyl)-1-propyl]amide]	100 to 500 nM	> 1000 nM	< 100 nM	< 100 nM	100 to 500 nM			++ (50%-75%)
C[C@@H]([C@@H](CC1CCC(c2ccccc2)CC1)C(=O)N[C@H](C(=O)Nc1nccs1)C(C)(C)C)N(O)C=O (stereo partly drawn) [Example 2, (2R,3S)-3-(Formyl-hydroxyamino)-2-(4-phenylcyclohexylmethyl)butanoic Acid [(1S)-2,2-Dimethyl-1-(1,3-thiazol-2-ylcarbamoyl)-1-propyl]amide]	< 100 nM	500 to 1000 nM	< 100 nM	100 to 500 nM	100 to 500 nM	> 1000 nM		
